From US20230157952A1, “METHOD FOR IMPROVING THE STABILITY OF A PHARMACEUTICAL COMPOSITION COMPRISING A HIGH PENETRATION DRUG, AND THE PHARMACEUTICAL COMPOSITION OBTAINED THEREFROM” (Techfields Inc., priority 2020, published 2023)

Experiment: Effect of temperature (and pH) on the stability of the solution (purity)
Assay type: physicochemical
Conditions: 7% solution in water

## CCN(CC)CCOC(=O)CCc1ccc2cc(OC)ccc2c1.Cl
pH 1.0, day 0
  Purity(%) at day 0: 98.0 ± 0.3%
pH 1.0, day 21, 5° C.
  Purity(%) at day 21 (5° C.): 92.7 ± 0.3%
pH 1.0, day 21, 25° C.
  Purity(%) at day 21 (25° C.): 69.1 ± 0.3%
pH 1.0, day 21, 40° C.
  Purity(%) at day 21 (40° C.): 16.3 ± 0.3%
pH 1.0, day 21, 60° C.
  Purity (%) at day 21 (60° C.): 0%
pH 2.0, day 0
  Purity(%) at day 0: 98.1 ± 0.3%
pH 2.0, day 21, 5° C.
  Purity(%) at day 21 (5° C.): 95.9 ± 0.3%
pH 2.0, day 21, 25° C.
  Purity(%) at day 21 (25° C.): 83.5 ± 0.3%
pH 2.0, day 21, 40° C.
  Purity(%) at day 21 (40° C.): 27.5 ± 0.3%
pH 2.0, day 21, 60° C.
  Purity (%) at day 21 (60° C.): 0%
pH 3.0, day 0
  Purity(%) at day 0: 98.3 ± 0.2%
pH 3.0, day 21, 5° C.
  Purity(%) at day 21 (5° C.): 97.4 ± 0.3%
pH 3.0, day 21, 25° C.
  Purity(%) at day 21 (25° C.): 94.6 ± 0.2%
pH 3.0, day 21, 40° C.
  Purity(%) at day 21 (40° C.): 49.3 ± 0.2%
pH 3.0, day 21, 60° C.
  Purity (%) at day 21 (60° C.): 0%
pH 3.7, day 0
  Purity(%) at day 0: 98.4 ± 0.2%
pH 3.7, day 21, 5° C.
  Purity(%) at day 21 (5° C.): 97.7 ± 0.2%
pH 3.7, day 21, 25° C.
  Purity(%) at day 21 (25° C.): 97.3 ± 0.2%
pH 3.7, day 21, 40° C.
  Purity(%) at day 21 (40° C.): 59.9 ± 0.2%
pH 3.7, day 21, 60° C.
  Purity (%) at day 21 (60° C.): 19.3 ± 0.3%
pH 4.0, day 0
  Purity(%) at day 0: 98.5 ± 0.1%
pH 4.0, day 21, 5° C.
  Purity(%) at day 21 (5° C.): 98.2 ± 0.2%
pH 4.0, day 21, 25° C.
  Purity(%) at day 21 (25° C.): 97.5 ± 0.2%
pH 4.0, day 21, 40° C.
  Purity(%) at day 21 (40° C.): 70.7 ± 0.2%
pH 4.0, day 21, 60° C.
  Purity (%) at day 21 (60° C.): 23.6 ± 0.3%
pH 4.3, day 0
  Purity(%) at day 0: 98.5 ± 0.2%
pH 4.3, day 21, 5° C.
  Purity(%) at day 21 (5° C.): 98.2 ± 0.2%
pH 4.3, day 21, 25° C.
  Purity(%) at day 21 (25° C.): 97.6 ± 0.1%
pH 4.3, day 21, 40° C.
  Purity(%) at day 21 (40° C.): 70.1 ± 0.2%
pH 4.3, day 21, 60° C.
  Purity (%) at day 21 (60° C.): 27.7 ± 0.2%
pH 4.6, day 0
  Purity(%) at day 0: 98.5 ± 0.1%
pH 4.6, day 21, 5° C.
  Purity(%) at day 21 (5° C.): 98.2 ± 0.2%
pH 4.6, day 21, 25° C.
  Purity(%) at day 21 (25° C.): 97.5 ± 0.2%
pH 4.6, day 21, 40° C.
  Purity(%) at day 21 (40° C.): 59.3 ± 0.2%
pH 4.6, day 21, 60° C.
  Purity (%) at day 21 (60° C.): 22.3 ± 0.2%
pH 5.0, day 0
  Purity(%) at day 0: 98.4 ± 0.2%
pH 5.0, day 21, 5° C.
  Purity(%) at day 21 (5° C.): 97.5 ± 0.2%
pH 5.0, day 21, 25° C.
  Purity(%) at day 21 (25° C.): 94.9 ± 0.2%
pH 5.0, day 21, 40° C.
  Purity(%) at day 21 (40° C.): 45.8 ± 0.3%
pH 5.0, day 21, 60° C.
  Purity (%) at day 21 (60° C.): 5.9 ± 0.2%
pH 6.0, day 0
  Purity(%) at day 0: 98.2 ± 0.2%
pH 6.0, day 21, 5° C.
  Purity(%) at day 21 (5° C.): 95.3 ± 0.2%
pH 6.0, day 21, 25° C.
  Purity(%) at day 21 (25° C.): 88.8 ± 0.2%
pH 6.0, day 21, 40° C.
  Purity(%) at day 21 (40° C.): 28.6 ± 0.2%
pH 6.0, day 21, 60° C.
  Purity (%) at day 21 (60° C.): 0%
pH 7.0, day 0
  Purity(%) at day 0: 98.0 ± 0.3%
pH 7.0, day 21, 5° C.
  Purity(%) at day 21 (5° C.): 90.2 ± 0.3%
pH 7.0, day 21, 25° C.
  Purity(%) at day 21 (25° C.): 60.9 ± 0.2%
pH 7.0, day 21, 40° C.
  Purity(%) at day 21 (40° C.): 17.4 ± 0.3%
pH 7.0, day 21, 60° C.
  Purity (%) at day 21 (60° C.): 0%
pH 8.0, day 0
  Purity(%) at day 0: 97.7 ± 0.3%
pH 8.0, day 21, 5° C.
  Purity(%) at day 21 (5° C.): 79.7 ± 0.3%
pH 8.0, day 21, 25° C.
  Purity(%) at day 21 (25° C.): 49.9 ± 0.3%
pH 8.0, day 21, 40° C.
  Purity(%) at day 21 (40° C.): 0%
pH 8.0, day 21, 60° C.
  Purity (%) at day 21 (60° C.): 0%
